Measured values taken from ChEMBL document CHEMBL5518237, “Design of Novel 2-Phenylquinazolin-4-amines as Selective CYP1B1 Inhibitors for Overcoming Paclitaxel Resistance in A549 Cells” (J Med Chem, 2024).
The source made the active and inactive calls. The rule behind the calls is not given here.

Tests used:
CYP1B1 [1] = target: T1, CYP1B1 (Homo sapiens, UniProt Q16678); assay: Inhibition of human recombinant CYP1B1 using 7-ethoxyresorufin as substrate at 0.01 uM preincubated with enzyme for 5 mins followed by fluorescent substrate and NADPH addition and measured after 35 mins by EROD assay; format: ADME; conditions: recombinant CYP1B1, probe 7-ethoxyresorufin, time 40 min
T1 sequence (Q16678 whole entry): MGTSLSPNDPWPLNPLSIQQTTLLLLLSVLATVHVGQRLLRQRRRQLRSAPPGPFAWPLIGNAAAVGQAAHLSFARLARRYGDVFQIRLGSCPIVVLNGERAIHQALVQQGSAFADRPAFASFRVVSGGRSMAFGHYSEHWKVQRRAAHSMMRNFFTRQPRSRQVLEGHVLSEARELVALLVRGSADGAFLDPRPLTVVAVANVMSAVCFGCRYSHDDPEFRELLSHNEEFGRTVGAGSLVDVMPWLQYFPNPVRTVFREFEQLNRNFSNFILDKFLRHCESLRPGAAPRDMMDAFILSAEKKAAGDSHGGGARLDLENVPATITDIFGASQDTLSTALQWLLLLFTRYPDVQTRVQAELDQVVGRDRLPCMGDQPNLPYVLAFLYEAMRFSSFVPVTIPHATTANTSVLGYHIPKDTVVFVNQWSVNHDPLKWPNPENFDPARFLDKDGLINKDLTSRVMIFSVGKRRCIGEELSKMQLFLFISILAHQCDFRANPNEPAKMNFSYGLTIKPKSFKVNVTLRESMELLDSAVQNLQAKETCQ

CYP1B1 [2] = target: T1, CYP1B1; assay: Inhibition of human recombinant CYP1B1 using 7-ethoxyresorufin as substrate at 1 uM preincubated with enzyme for 5 mins followed by fluorescent substrate and NADPH addition and measured after 35 mins by EROD assay; format: ADME; conditions: recombinant CYP1B1, probe 7-ethoxyresorufin, time 40 min
Cytochrome P450 1B1 = target: T2, Cytochrome P450 1B1 (Homo sapiens, UniProt Q16678); assay: Inhibition of human recombinant CYP1B1 using 7-ethoxyresorufin as substrate preincubated with enzyme for 5 mins followed by fluorescent substrate and NADPH addition and measured after 35 mins by EROD assay; format: ADME
T2 sequence (Q16678 whole entry): T1 sequence (Q16678 whole entry)

Cytochrome P450 1A1 = target: T3, Cytochrome P450 1A1 (Homo sapiens, UniProt P04798); assay: Inhibition of human recombinant CYP1A1 using 7-ethoxyresorufin as substrate preincubated with enzyme for 5 mins followed by fluorescent substrate and NADPH addition and measured after 15 mins by EROD assay; format: ADME
T3 sequence (P04798 whole entry): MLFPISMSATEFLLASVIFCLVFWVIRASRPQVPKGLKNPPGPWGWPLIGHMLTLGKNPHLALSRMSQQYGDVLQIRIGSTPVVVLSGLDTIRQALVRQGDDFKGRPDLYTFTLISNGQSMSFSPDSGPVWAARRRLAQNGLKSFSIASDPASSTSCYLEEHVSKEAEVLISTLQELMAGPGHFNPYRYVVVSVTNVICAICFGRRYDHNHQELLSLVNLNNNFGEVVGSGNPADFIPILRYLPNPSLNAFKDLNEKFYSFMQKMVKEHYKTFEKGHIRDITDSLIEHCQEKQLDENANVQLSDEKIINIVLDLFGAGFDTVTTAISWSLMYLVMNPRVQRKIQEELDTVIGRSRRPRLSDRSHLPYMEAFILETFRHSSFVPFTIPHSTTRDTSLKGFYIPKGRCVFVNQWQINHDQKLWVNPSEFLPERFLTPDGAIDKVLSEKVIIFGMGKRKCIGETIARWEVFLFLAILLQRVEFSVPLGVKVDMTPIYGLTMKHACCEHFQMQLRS

Cytochrome P450 1A2 = target: T4, Cytochrome P450 1A2 (Homo sapiens, UniProt P05177); assay: Inhibition of human recombinant CYP1A2 using 7-ethoxyresorufin as substrate preincubated with enzyme for 5 mins followed by fluorescent substrate and NADPH addition and measured after 50 mins by EROD assay; format: ADME
T4 sequence (P05177 whole entry): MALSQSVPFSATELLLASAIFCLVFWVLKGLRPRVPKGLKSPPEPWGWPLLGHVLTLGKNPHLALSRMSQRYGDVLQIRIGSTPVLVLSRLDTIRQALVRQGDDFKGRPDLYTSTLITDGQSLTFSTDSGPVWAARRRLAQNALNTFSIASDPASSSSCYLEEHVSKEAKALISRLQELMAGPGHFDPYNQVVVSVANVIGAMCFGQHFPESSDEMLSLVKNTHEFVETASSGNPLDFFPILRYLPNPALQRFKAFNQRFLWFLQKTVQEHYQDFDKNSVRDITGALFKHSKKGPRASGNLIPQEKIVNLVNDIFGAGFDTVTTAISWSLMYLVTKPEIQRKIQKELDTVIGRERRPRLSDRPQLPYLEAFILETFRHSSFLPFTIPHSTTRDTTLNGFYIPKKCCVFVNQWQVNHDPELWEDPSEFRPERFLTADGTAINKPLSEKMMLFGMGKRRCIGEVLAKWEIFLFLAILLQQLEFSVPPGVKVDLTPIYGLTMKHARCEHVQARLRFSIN

CYP1A1 versus CYP1B1 = assay: (§1) Selectivity ratio of IC50 for Inhibition of human recombinant CYP1A1 to IC50 for Inhibition of human recombinant CYP1B1; format: ADME; conditions: recombinant CYP1A1 and recombinant CYP1B1, read-out: Ratio IC50
CYP1A2 versus CYP1B1 = assay: (§2) Selectivity ratio of IC50 for Inhibition of human recombinant CYP1A2 to IC50 for Inhibition of human recombinant CYP1B1; format: ADME; conditions: recombinant CYP1A2 and recombinant CYP1B1, read-out: Ratio IC50
[3] = n-Octanol/water partition coefficient, logP of the compound by HPLC analysis; format: physicochemical; conditions: n-octanol/water; read-out: logP
A549 [4] = assay: Cytotoxicity against human A549 cells assessed as reduction in cell viability at 0.625 to 20 uM incubated for 48 hrs by MTT assay; format: toxicity, cell-based; conditions: a549, 48 h, dose 0.625-20 µM
HEK-293T = assay: Cytotoxicity against human HEK293T cells assessed as reduction in cell viability at 0.625 to 20 uM incubated for 48 hrs by MTT assay; format: toxicity, cell-based; conditions: dose 0.625-20 µM
A549 [5] = assay: Induction of apoptosis in DMBA-stimulated PTX resistant human A549 cells assessed as apoptosis rate at 5 uM incubated for 24 hrs by flow cytometry (reference value: 6.67 +/- 1.03%); format: functional
[6] = as §1; format: ADME; conditions: recombinant enzyme
[7] = as §2; format: ADME; conditions: recombinant enzyme
[8] = n-Octanol/PBS partition coefficient, log D of the radiolabeled compound at 0.37 MBq at pH 7.4 by gamma-counting analysis; format: physicochemical
[9] = Drug uptake in human HCT-116 cells using radiolabeled compound at 0.037 MBq incubated for 120 mins by gamma-counting analysis; format: ADME, cell-based; conditions: hct-116, 2 h
[10] = Drug uptake in human A549 cells using radiolabeled compound at 0.037 MBq incubated for 120 mins by gamma-counting analysis; format: ADME, cell-based; conditions: a549, 2 h
[11] = Drug uptake in human HEK293T cells using radiolabeled compound at 0.037 MBq incubated for 120 mins by gamma-counting analysis; format: ADME, cell-based; conditions: hek-293t, 2 h
A549 [12] = assay: Reversal of DMBA-stimulated PTX resistance in human A549 cells assessed as decrease in cell viability at 1.25 to 10 uM incubated for 24 hrs in presence of DMBA and paclitaxel by MTT assay; format: functional, cell-based; conditions: dose 1.25-10 µM
A549 [13] = assay: Inhibition of tumor metastasis in DMBA-stimulated PTX resistant human A549 cells assessed as inhibition of cell migration by measuring decrease in crawling ability of cells at 2.5 to 10 uM incubated for 48 hrs by wound healing assay; format: functional, cell-based; conditions: dose 2.5-10 µM
[14] = Drug uptake in human HCT-116 cells using radiolabeled compound at 0.037 MBq incubated for 240 mins by gamma-counting analysis; format: ADME, cell-based; conditions: hct-116, 4 h
[15] = Drug uptake in Kunming mouse intestine assessed as radioactive accumulation treated with radiolabeled compound at 0.37 MBq, iv measured after 120 mins by gamma-counting analysis; format: ADME, organism-based; conditions: in vivo, 2 h
[16] = Drug uptake in Kunming mouse lungs assessed as radioactive accumulation treated with radiolabeled compound at 0.37 MBq, iv measured after 120 mins by gamma-counting analysis; format: ADME, organism-based, Lung; conditions: in vivo, 2 h
[17] = Drug uptake in Kunming mouse kidney assessed as radioactive accumulation treated with radiolabeled compound at 0.37 MBq, iv measured after 120 mins by gamma-counting analysis; format: ADME, organism-based; conditions: in vivo, 2 h
[18] = Drug uptake in Kunming mouse thyroid assessed as radioactive accumulation treated with radiolabeled compound at 0.37 MBq, iv measured after 120 mins by gamma-counting analysis; format: ADME, organism-based, Thyroid gland; conditions: in vivo, 2 h
[19] = Drug uptake in intestine of mouse xenografted with human HCT-116 cells assessed as radioactive accumulation treated with radiolabeled compound at 0.37 MBq, iv measured after 240 mins by gamma-counting analysis; format: ADME, organism-based; conditions: in vivo, 4 h
[20] = Drug uptake in liver of mouse xenografted with human HCT-116 cells assessed as radioactive accumulation treated with radiolabeled compound at 0.37 MBq, iv measured after 240 mins by gamma-counting analysis; format: ADME, organism-based; conditions: in vivo, 4 h
[21] = Drug uptake in kidney of mouse xenografted with human HCT-116 cells assessed as radioactive accumulation treated with radiolabeled compound at 0.37 MBq, iv measured after 240 mins by gamma-counting analysis; format: ADME, organism-based; conditions: in vivo, 4 h
[22] = Drug metabolism in mouse xenografted with human HCT-116 cells assessed as deiodination treated with radiolabeled compound at 0.37 MBq, iv measured after 240 mins by gamma-counting analysis; format: ADME, organism-based; conditions: 4 h
[23] = Drug uptake in HCT-116 cells bearing mouse assessed as ratio of radioactive accumulation in tumor to muscle treated with radiolabeled compound at 0.37 MBq, iv measured after 30 mins by gamma-counting analysis; format: ADME, organism-based; conditions: in vivo, 0.5 h
[24] = Drug uptake in HCT-116 cells bearing mouse assessed as ratio of radioactive accumulation in tumor to muscle treated with radiolabeled compound at 0.37 MBq, iv measured after 240 mins by gamma-counting analysis; format: ADME, organism-based; conditions: in vivo, 4 h
[25] = Drug metabolism in Kunming mouse assessed as deiodination treated with radiolabeled compound at 0.37 MBq, iv measured after 120 mins by gamma-counting analysis; format: ADME, organism-based; conditions: in vivo, 2 h

With `Cl.FCCNc1nc(-c2ccc(I)cc2)nc2ccccc12` the inhibition at 35 min, 0.01 µM (CYP1B1 [1]) was 90.1%, the inhibition at 35 min, 1 µM (CYP1B1 [2]) was 95.5% and the IC50 (Cytochrome P450 1B1) was 0.15 nM. The IC50 (Cytochrome P450 1A1) was 33.2 nM, the IC50 (Cytochrome P450 1A2) was 604 nM and the selectivity ratio (CYP1A1 versus CYP1B1) was 221. For the same molecule, the selectivity ratio (CYP1A2 versus CYP1B1) was 4030, the logP [3] was 3.91 and the Activity (A549 [4]) was “Non-Toxic”. For the same molecule, the Activity (HEK-293T) was “Non-Toxic” and the Activity (A549 [5]) was 21.05%.

Work on `CNc1nc(-c2ccc(I)cc2)nc2ccccc12` yielded an IC50 (Cytochrome P450 1B1) of 0.000747 nM, an IC50 (Cytochrome P450 1A1) of 26.5 nM and an IC50 (Cytochrome P450 1A2) of 1110 nM. The “Ratio IC50” value [6] was 3.54 10^4No_unit, the “Ratio IC50” value [7] was 1.49 10^6No_unit and the logD ([8]; octanol/water) was 3.55. The Drug uptake [9] was “Active”, the Drug uptake [10] was “Active” and the Drug uptake [11] was “Active”.

In the case of `FCCNc1nc(-c2ccc(I)cc2)nc2ccccc12`, the Activity (A549 [12]) is reported as “Active” and the inhibition (A549 [13]) is reported as “Active”.

With `Nc1nc(-c2ccc(I)cc2)nc2ccccc12` the IC50 (Cytochrome P450 1A1) was 5.74 nM, the IC50 (Cytochrome P450 1A2) was 1240 nM and the “Ratio IC50” value [6] was 287. For the same molecule, the “Ratio IC50” value [7] was 6.23 10^4No_unit, the logD ([8]; octanol/water) was 3.24 and the Drug uptake [9] was “Active”. For the same molecule, the Drug uptake [14] was 23.95%, the Drug uptake [10] was “Active” and the Drug uptake [11] was “Active”. For the same molecule, the Drug uptake [15] was “Active”, the Drug uptake [16] was “Active” and the Drug uptake [17] was “Active”. The Drug uptake [18] was “Active”, the Drug uptake [19] was “Active” and the Drug uptake [20] was “Active”. The Drug uptake [21] was “Active”, the Drug metabolism [22] was “Metabolite_Notdetected” and the Ratio [23] was 1.27. The Ratio [24] was 1.84 and the Drug metabolism [25] was “Metabolite_Notdetected”.

In the case of `CCNc1nc(-c2ccc(I)cc2)nc2ccccc12` [listing 1 of 2 here], the IC50 (Cytochrome P450 1B1) is reported as 0.000205 nM, the IC50 (Cytochrome P450 1A1) is reported as 1.63 nM and the IC50 (Cytochrome P450 1A2) is reported as 968 nM. The “Ratio IC50” value [6] was 7.95 10^5No_unit, the selectivity ratio (CYP1A2 versus CYP1B1) was 4.72e+06 and the logD ([8]; n-octanol/PBS, read-out: logD) was 3.54. For the same molecule, the Drug uptake [9] was “Active”, the Drug uptake [10] was “Active” and the Drug uptake [11] was “Active”.

For `CCNc1nc(-c2ccc(I)cc2)nc2ccccc12` [listing 2 of 2 here], the Activity (A549 [12]) was “Active” and the inhibition (A549 [13]) was “Active”.
